Earlier results on 1 compound are cited in US6413988B1, “Prucalopride oral solution” (Janssen Pharmaceutica N.V., priority 1999, dated 2002).

One data set has as its target 5-HT4 receptors (Homo sapiens, UniProt Q13639).
In a further data set the target is 5-HT2A receptors (Homo sapiens, UniProt P28223).

The structures appear in SMILES notation.

5-HT2A receptors, sequence (P28223 whole entry): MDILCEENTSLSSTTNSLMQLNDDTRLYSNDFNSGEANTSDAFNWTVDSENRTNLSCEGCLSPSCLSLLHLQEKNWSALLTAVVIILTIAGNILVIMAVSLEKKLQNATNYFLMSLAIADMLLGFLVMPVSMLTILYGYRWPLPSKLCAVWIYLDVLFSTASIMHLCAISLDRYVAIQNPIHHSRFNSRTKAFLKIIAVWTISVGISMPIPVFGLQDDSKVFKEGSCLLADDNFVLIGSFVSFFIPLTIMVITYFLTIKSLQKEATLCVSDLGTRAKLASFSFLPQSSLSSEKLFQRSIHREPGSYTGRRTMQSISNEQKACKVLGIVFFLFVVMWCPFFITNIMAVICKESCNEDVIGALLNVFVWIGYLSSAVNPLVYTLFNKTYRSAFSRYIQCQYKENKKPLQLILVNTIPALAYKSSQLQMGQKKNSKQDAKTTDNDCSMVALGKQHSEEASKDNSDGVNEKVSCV
5-HT4 receptors, sequence (Q13639 whole entry): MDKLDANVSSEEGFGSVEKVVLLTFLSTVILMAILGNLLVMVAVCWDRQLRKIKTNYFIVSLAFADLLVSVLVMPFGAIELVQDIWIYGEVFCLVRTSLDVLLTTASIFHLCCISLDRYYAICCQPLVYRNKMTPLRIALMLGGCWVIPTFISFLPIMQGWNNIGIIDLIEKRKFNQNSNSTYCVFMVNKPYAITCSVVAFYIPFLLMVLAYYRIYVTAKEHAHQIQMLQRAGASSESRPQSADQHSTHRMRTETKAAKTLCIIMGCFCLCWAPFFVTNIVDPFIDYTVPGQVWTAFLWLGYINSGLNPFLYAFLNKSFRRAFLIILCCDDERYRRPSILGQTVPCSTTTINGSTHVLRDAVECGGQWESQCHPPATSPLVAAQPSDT

Regarding `COCCCN1CCC(NC(=O)c2cc(Cl)c(N)c3c2OCC3)CC1` [Prucalopride, 4-amino-5-chloro-2,3-dihydro-N-[1-(3-methoxypropyl)-4-piperidinyl]-7-benzofuran-carboxamide], the “agonist of 5-HT4 receptors” value on 5-HT4 receptors is “potent and selective agonist”. In the data set with 5-HT3 receptors, the “affinity for 5-HT3 receptors” value was “no affinity”. Besides, on 5-HT2A receptors, the “affinity for 5-HT2A receptors” value is given as “no affinity”. Further, in the data set on colon (in animals), the “colonic motility and defecation” value is “stimulates colonic motility and defecation”. In addition, in the data set with colon (propagated over the length of the colon as a peristaltic wave), the “giant contractions in the colon” value is given as “induces giant contractions in the colon”.
